Assay results: patent US20080125469A1, “Thiadiazole compounds and methods of use thereof” (Wyeth, priority 2006, published 2008)

biological target: T1, purified recombinant human Aggrecanase-2 (Agg2-Phe628) (Homo sapiens, UniProt Q9UNA0); test: Aggrecanase 2 continuous in vitro fluorescence assay; format: biochemical; details: Agg2-Phe628 0.5 μg/ml, substrate 25 μM, 30° C.; read-out: IC50
T1 construct: (Agg2-Phe628) (MW=41,737), which is a truncated form of full-length human aggrecanase-2; made in house; host or cells: CHO cells
T1 sequence (Q9UNA0 262-628 limits assumed): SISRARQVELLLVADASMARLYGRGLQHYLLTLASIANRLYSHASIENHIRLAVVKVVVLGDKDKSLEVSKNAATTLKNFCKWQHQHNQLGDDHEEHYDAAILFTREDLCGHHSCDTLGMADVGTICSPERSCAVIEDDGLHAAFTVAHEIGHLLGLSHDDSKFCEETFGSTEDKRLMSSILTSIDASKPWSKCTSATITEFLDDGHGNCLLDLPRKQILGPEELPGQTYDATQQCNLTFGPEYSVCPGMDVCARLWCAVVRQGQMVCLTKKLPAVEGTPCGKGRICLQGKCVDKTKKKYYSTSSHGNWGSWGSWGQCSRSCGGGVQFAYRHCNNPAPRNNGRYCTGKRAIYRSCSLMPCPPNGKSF
Method: A continuous vitro fluorescence assay was employed, wherein the enzyme used in the assay was a purified recombinant human Aggrecanase-2 (Agg2-Phe628) (MW=41,737), which is a truncated form of full-length human aggrecanase-2 that was expressed in CHO cells and purified prior to use. The final concentration of Agg2-Phe628 was 0.5 μg/ml. The buffer used in this assay was 50 mM HEPES, pH 7.5, 100 mM NaCl, 5 mM CaCl2, 0.1% CHAPS, 5% glycerol. The substrate used in the assay was a synthetic peptide having the sequence ABz-[sequence]-Dap(Dnp)-KK—NH2 (>95% pure by HPLC, AnaSpec, Inc.), wherein Abz refers to ortho-aminobenzyl, a fluorescent group which is quenched by energy transfer to a 2,4-dinitrophenyl group. The final concentration of substrate in the assay was 25 μM and was spectrophotometrically determined using the extinction coefficient at 354 nm of 18,172 M^−1cm^−1. The Vmax and Km for this enzyme/substrate reaction were determined to be insensitive to DMSO up to at least 10% (v/v).
The total reaction volume was 100 μl. The buffer and enzyme were added first followed by addition of 10× inhibitor from the dilution plate. Separate enzyme and buffer samples were included in order to obtain the maximal rate of substrate cleavage. The reaction was allowed to stand at 30° C. for 15 minutes, then substrate was added, the resultant solution was mixed. The resultant reaction was allowed to progress, with monitoring, for 40 minutes at 30° C. in kinetic mode using λex: 340 nm and λem: 420 (GeminiXS Molecular Devices).
The fluorescence intensity is linear during the time of data collection. The slope of the line (Vmax/sec) represents the initial reaction rate, ν. The maximal rate of cleavage of substrate was determined in the absence of inhibitor. The percent inhibition of activity in the presence of inhibitor was calculated using the following equation:
% inhibition=(1−ν(RFU/sec))/Maximal Rate(RFU/sec))*100
The IC50 was obtained by fitting the initial rate, ν or % inhibition at each concentration of inhibitor to the following equation:
This model describes a sigmoidal curve with an adjustable baseline, wherein:
y is the % inhibition or initial rate of reaction;
C is the concentration of inhibitor under test;
a is the limiting response as C approaches zero. As C increases without bound y tends toward its lower limit, d;
y is halfway between the lower and upper asymptotes when C=IC50; and
n is the Hill coefficient. The sign of n is positive when the response increases with increasing dose and is negative when the response decreases with increasing dose (inhibition).

Q: How did the IC50 turn out when “1-benzyl-5′-(4-methoxyphenyl)-3′H-spiro[indole-3,2′-[1,3,4]thiadiazol]-2(1H)-one [Compound 10]” was run?
A: 874 nM

Q: Which IC50 does the source give for “5-chloro-5′-(4-methoxyphenyl)-3′H-spiro[indole-3,2′-[1,3,4]thiadiazol]-2(1H)-one [Compound 13]” here?
A: 1960 nM

Q: “5′-(4-methoxyphenyl)-1-[3-(trifluoromethyl)phenyl]-3′H-spiro[indole-3,2′-[1,3,4]thiadiazol]-2(1H)-one [Compound 8]” was tested. Which IC50 did it give?
A: 1180 nM

Q: How did the IC50 turn out when `COc1ccc(C2=NNC3(S2)C(=O)Nc2c(C)cc(C)cc23)cc1` (stereo not shown) [Compound 1, 5′-(4-methoxyphenyl)-5,7-dimethyl-3′H-spiro[indole-3,2′-[1,3,4]thiadiazol]-2(1H)-one] was run?
A: 3060 nM

Q: `COc1ccc(C2=NNC3(S2)C(=O)N(C)c2ccccc23)cc1` (stereo not shown) [Compound 2, 5′-(4-methoxyphenyl)-1-methyl-3′H-spiro[indole-3,2′-[1,3,4]thiadiazol]-2(1H)-one] was tested. Which IC50 did it give?
A: > 7000 nM

Q: Which IC50 does the source give for `COc1ccc(C2=NNC3(S2)C(=O)Nc2ccccc23)cc1` (stereo not shown) [Compound 3, 5′-(4-methoxyphenyl)-3′H-spiro[indole-3,2′-[1,3,4]thiadiazol]-2(1H)-one] here?
A: 13400 nM

Q: With `COc1ccc(C2=NNC3(S2)C(=O)Nc2ccc(Br)cc23)cc1` (stereo not shown) [Compound 4, 5-bromo-5′-(4-methoxyphenyl)-3′H-spiro[indole-3,2′-[1,3,4]thiadiazol]-2(1H)-one] as the compound, how does the IC50 read?
A: 2410 nM

Q: With `COc1ccc(C2=NNC3(S2)C(=O)Nc2ccc(C)cc23)cc1` (stereo not shown) [Compound 5, 5′-(4-methoxyphenyl)-5-methyl-3′H-spiro[indole-3,2′-[1,3,4]thiadiazol]-2(1H)-one] as the compound, how does the IC50 read?
A: 2530 nM

Q: Which IC50 does the source give for `COc1ccc(C2=NNC3(S2)C(=O)Nc2ccc(OC)cc23)cc1` (stereo not shown) [Compound 6, 5-methoxy-5′-(4-methoxyphenyl)-3′H-spiro[indole-3,2′-[1,3,4]thiadiazol]-2(1H)-one] here?
A: > 2500 nM

Q: For `C#CCN1C(=O)C2(NN=C(c3ccc(OC)cc3)S2)c2ccccc21` (stereo not shown) [Compound 7, 5′-(4-methoxyphenyl)-1-prop-2-yn-1-yl-3′H-spiro[indole-3,2′-[1,3,4]thiadiazol]-2(1H)-one], which IC50 is on record?
A: 2470 nM

Q: How did the IC50 turn out when `COc1ccc(C2=NNC3(S2)C(=O)Nc2cc(Cl)ccc23)cc1` (stereo not shown) [Compound 12, 6-chloro-5′-(4-methoxyphenyl)-3′H-spiro[indole-3,2′-[1,3,4]thiadiazol]-2(1H)-one] was run?
A: 1190 nM

Q: With `CCCc1ccc2c(c1)NC(=O)C21NN=C(c2ccc(OC)cc2)S1` (stereo not shown) [Compound 15, 5′-(4-methoxyphenyl)-6-propyl-3′H-spiro[indole-3,2′-[1,3,4]thiadiazol]-2(1H)-one] as the compound, how does the IC50 read?
A: 775 nM

Q: How did the IC50 turn out when `COc1ccc(C2=NNC3(S2)C(=O)Nc2ccc([N+](=O)[O-])cc23)cc1` (stereo not shown) [Compound 16, 5′-(4-methoxyphenyl)-5-nitro-3′H-spiro[indole-3,2′-[1,3,4]thiadiazol]-2(1H)-one] was run?
A: 4430 nM

Q: `COc1ccc(C2=NNC3(S2)C(=O)Nc2c3ccc(Cl)c2C)cc1` (stereo not shown) [Compound 17, 6-chloro-5′-(4-methoxyphenyl)-7-methyl-3′H-spiro[indole-3,2′-[1,3,4]thiadiazol]-2(1H)-one] was tested. Which IC50 did it give?
A: 1040 nM

Q: `COc1ccc(C2=NNC3(S2)C(=O)Nc2c(C)cccc23)cc1` (stereo not shown) [Compound 18, 5′-(4-methoxyphenyl)-7-methyl-3′H-spiro[indole-3,2′-[1,3,4]thiadiazol]-2(1H)-one] was tested. Which IC50 did it give?
A: 3750 nM

Q: `COc1ccc(C2=NNC3(S2)C(=O)Nc2cc(C)ccc23)cc1` (stereo not shown) [Compound 19, 5′-(4-methoxyphenyl)-6-methyl-3′H-spiro[indole-3,2′-[1,3,4]thiadiazol]-2(1H)-one] was tested. Which IC50 did it give?
A: 1400 nM

Q: With `COc1ccc(C2=NNC3(S2)C(=O)Nc2c3ccc(C)c2OC)cc1` (stereo not shown) [Compound 20, 7-methoxy-5′-(4-methoxyphenyl)-6-methyl-3′H-spiro[indole-3,2′-[1,3,4]thiadiazol]-2(1H)-one] as the compound, how does the IC50 read?
A: 5920 nM

Q: With `CCN1C(=O)C2(NN=C(c3ccc(OC)cc3)S2)c2cc(F)c(N3CCN(C)CC3)cc21` (stereo not shown) [Compound 21, 1-ethyl-5-fluoro-5′-(4-methoxyphenyl)-6-(4-methylpiperazin-1-yl)-3′H-spiro[indole-3,2′-[1,3,4]thiadiazol]-2(1H)-one] as the compound, how does the IC50 read?
A: 5420 nM

Q: With `COc1ccc(C2=NNC3(S2)C(=O)N(c2ccccc2C)c2ccc(C)cc23)cc1` (stereo not shown) [Compound 23, 5′-(4-methoxyphenyl)-5-methyl-1-(2-methylphenyl)-3′H-spiro[indole-3,2′-[1,3,4]thiadiazol]-2(1H)-one] as the compound, how does the IC50 read?
A: 899 nM

Q: Which IC50 does the source give for `COc1ccc(C2=NNC3(S2)C(=O)N(c2ccc(Cl)cc2)c2ccc(C)cc23)cc1` (stereo not shown) [Compound 25, 1-(4-chlorophenyl)-5′-(4-methoxyphenyl)-5-methyl-3′H-spiro[indole-3,2′-[1,3,4]thiadiazol]-2(1H)-one] here?
A: 1480 nM

Q: For `COc1ccc(C2=NNC3(S2)C(=O)N(c2ccc(Cl)c(Cl)c2)c2ccc(C)cc23)cc1` (stereo not shown) [Compound 26, 1-(3,4-dichlorophenyl)-5′-(4-methoxyphenyl)-5-methyl-3′H-spiro[indole-3,2′-[1,3,4]thiadiazol]-2(1H)-one], which IC50 is on record?
A: 1260 nM

Q: With `COc1ccc(C2=NNC3(S2)C(=O)N(c2cccc([N+](=O)[O-])c2)c2ccc(C)cc23)cc1` (stereo not shown) [Compound 27, 5′-(4-methoxyphenyl)-5-methyl-1-(3-nitrophenyl)-3′H-spiro[indole-3,2′-[1,3,4]thiadiazol]-2(1H)-one] as the compound, how does the IC50 read?
A: 995 nM

Q: Which IC50 does the source give for `CCCc1ccc2c(c1)N(Cc1ccccc1)C(=O)C21NN=C(c2ccc(OC)cc2)S1` (stereo not shown) [Compound 28, 1-benzyl-5′-(4-methoxyphenyl)-6-propyl-3′H-spiro[indole-3,2′-[1,3,4]thiadiazol]-2(1H)-one] here?
A: 950 nM

Q: How did the IC50 turn out when `CCc1ccc2c(c1)C1(NN=C(c3ccc(OC)cc3)S1)C(=O)N2` (stereo not shown) [Compound 29, 5-ethyl-5′-(4-methoxyphenyl)-3′H-spiro[indole-3,2′-[1,3,4]thiadiazol]-2(1H)-one] was run?
A: 1360 nM

Q: Which IC50 does the source give for `CCc1ccc2c(c1)C1(NN=C(c3cccc(OC)c3)S1)C(=O)N2` (stereo not shown) [Compound 30, 5-ethyl-5′-(3-methoxyphenyl)-3′H-spiro[indole-3,2′-[1,3,4]thiadiazol]-2(1H)-one] here?
A: 5930 nM

Q: Which IC50 does the source give for `O=C1Nc2ccc(OC(F)(F)F)cc2C12NN=C(c1ccccc1)S2` (stereo not shown) [Compound 31, 5′-phenyl-5-(trifluoromethoxy)-3′H-spiro[indole-3,2′-[1,3,4]thiadiazol]-2(1H)-one] here?
A: 7220 nM

Q: For `Cc1ccc(C2=NNC3(S2)C(=O)N(c2ccccc2C)c2ccc(C)cc23)cc1` (stereo not shown) [Compound 32, 5-methyl-1-(2-methylphenyl)-5′-(4-methylphenyl)-3′H-spiro[indole-3,2′-[1,3,4]thiadiazol]-2(1H)-one], which IC50 is on record?
A: 1220 nM

Q: How did the IC50 turn out when `Cc1ccc(C2=NNC3(S2)C(=O)N(Cc2ccccc2)c2ccc(C)cc23)cc1` (stereo not shown) [Compound 33, 1-benzyl-5-methyl-5′-(4-methylphenyl)-3′H-spiro[indole-3,2′-[1,3,4]thiadiazol]-2(1H)-one] was run?
A: 612 nM

Q: How did the IC50 turn out when `Cc1cc(C)c2c(c1)C1(NN=C(c3ccccc3)S1)C(=O)N2` (stereo not shown) [Compound 34, 5,7-dimethyl-5′-phenyl-3′H-spiro[indole-3,2′-[1,3,4]thiadiazol]-2(1H)-one] was run?
A: 4670 nM

Q: For `CCCc1ccc2c(c1)NC(=O)C21NN=C(c2ccc(C)cc2)S1` (stereo not shown) [Compound 37, 5′-(4-methylphenyl)-6-propyl-3′H-spiro[indole-3,2′-[1,3,4]thiadiazol]-2(1H)-one], which IC50 is on record?
A: 1400 nM

Q: `O=C1N(c2ccccc2)c2ccccc2C12NN=C(c1ccccc1)S2` (stereo not shown) [Compound 38, 1,5′-diphenyl-3′H-spiro[indole-3,2′-[1,3,4]thiadiazol]-2(1H)-one] was tested. Which IC50 did it give?
A: 2620 nM

Q: `O=C1Nc2cc(F)c(F)cc2C12NN=C(c1ccccc1)S2` (stereo not shown) [Compound 39, 5,6-difluoro-5′-phenyl-3′H-spiro[indole-3,2′-[1,3,4]thiadiazol]-2(1H)-one] was tested. Which IC50 did it give?
A: 14300 nM

Q: How did the IC50 turn out when `C=CCN1C(=O)C2(NN=C(c3ccccc3)S2)c2ccccc21` (stereo not shown) [Compound 41, 1-allyl-5′-phenyl-3′H-spiro[indole-3,2′-[1,3,4]thiadiazol]-2(1H)-one] was run?
A: 4880 nM

Q: How did the IC50 turn out when `CC(C)N1C(=O)C2(NN=C(c3ccccc3)S2)c2ccccc21` (stereo not shown) [Compound 42, 1-isopropyl-5′-phenyl-3′H-spiro[indole-3,2′-[1,3,4]thiadiazol]-2(1H)-one] was run?
A: 3050 nM

same assay, conditions: inhibitor concentration not given

Q: For “1-(4-chlorobenzoyl)-5′-(4-methoxyphenyl)-3′H-spiro[indole-3,2′-[1,3,4]thiadiazol]-2(1H)-one [Compound 36]”, which “% Inhibition” value is on record?
A: 48%

Q: How did the “% Inhibition” value turn out when “1-[2-(dimethylamino)ethyl]-5′-(4-methoxyphenyl)-3′H-spiro[indole-3,2′-[1,3,4]thiadiazol]-2(1H)-one [Compound 11]” was run?
A: 30%

Q: For `COc1ccc(C2=NNC3(S2)C(=O)Nc2cccc(N4CCN(Cc5ccccc5)CC4)c23)cc1` (stereo not shown) [Compound 14, 4-(4-benzylpiperazin-1-yl)-5′-(4-methoxyphenyl)-3′H-spiro[indole-3,2′-[1,3,4]thiadiazol]-2(1H)-one], which “% Inhibition” value is on record?
A: 50%

Q: Which “% Inhibition” value does the source give for `COc1ccc(C2=NNC3(S2)C(=O)N(c2ccc(C)cc2)c2ccc(C)cc23)cc1` (stereo not shown) [Compound 24, 5′-(4-methoxyphenyl)-5-methyl-1-(4-methylphenyl)-3′H-spiro[indole-3,2′-[1,3,4]thiadiazol]-2(1H)-one] here?
A: 39%

Q: How did the “% Inhibition” value turn out when `COc1ccc2c(c1)C1(NN=C(c3ccccc3)S1)C(=O)N2` (stereo not shown) [Compound 35, 5-methoxy-5′-phenyl-3′H-spiro[indole-3,2′-[1,3,4]thiadiazol]-2(1H)-one] was run?
A: 41%

Q: Which “% Inhibition” value does the source give for `O=C1Nc2c(Cl)ccc(Cl)c2C12NN=C(c1ccccc1)S2` (stereo not shown) [Compound 40, 4,7-dichloro-5′-phenyl-3′H-spiro[indole-3,2′-[1,3,4]thiadiazol]-2(1H)-one] here?
A: 39%
